What was measured:
Assay in all cases: NCI one-dose assay
Format in all cases: cell-based
[1] = tested on: SF-295; details: Homo sapiens, SF-295, CNS cancer, read-out: Cell growth inhibition %
[2] = tested on: HS 578 T; details: Homo sapiens, Breast cancer, read-out: Cell growth inhibition %
[3] = tested on: RPMI-8226; details: Homo sapiens, RPMI-8226, Leukemia, read-out: Cell growth inhibition %
[4] = tested on: COLO 205; details: Homo sapiens, COLO 205, Colon cancer, read-out: Cell growth inhibition %
[5] = tested on: BT-549; details: Homo sapiens, BT-549, Breast cancer, read-out: Cell growth inhibition %
[6] = tested on: NCI-H522; details: Homo sapiens, NCI-H522, Non-small cell lung cancer, read-out: Cell growth inhibition %
[7] = tested on: U251; details: Homo sapiens, U-251, U251, CNS cancer, read-out: Cell growth inhibition %
[8] = tested on: EKVX; details: Homo sapiens, Non-small cell lung cancer, read-out: Cell growth inhibition %
[9] = tested on: MOLT-4; details: Homo sapiens, MOLT-4, Leukemia, read-out: Cell growth inhibition %
[10] = tested on: SR; details: Homo sapiens, Leukemia, read-out: Cell growth inhibition %
[11] = tested on: ACHN; details: Homo sapiens, Renal cancer, read-out: Cell growth inhibition %
[12] = tested on: HCT-15; details: Homo sapiens, HCT-15, Colon cancer, read-out: Cell growth inhibition %
[13] = tested on: NCI-H226; details: Homo sapiens, NCI-H226, Non-small cell lung cancer, read-out: Cell growth inhibition %
[14] = tested on: MDA-MB-231/ATCC; details: Homo sapiens, Breast cancer, read-out: Cell growth inhibition %
[15] = tested on: OVCAR-3; details: Homo sapiens, OVCAR-3, Ovarian cancer, read-out: Cell growth inhibition %
[16] = tested on: HL-60(TB); details: Homo sapiens, Leukemia, read-out: Cell growth inhibition %
[17] = tested on: MALME-3M; details: Homo sapiens, Melanoma, read-out: Cell growth inhibition %
[18] = tested on: A549/ATCC; details: Homo sapiens, Non-small cell lung cancer, read-out: Cell growth inhibition %
[19] = tested on: DU-145; details: Homo sapiens, DU-145, Prostate cancer, read-out: Cell growth inhibition %
[20] = tested on: NCI-H460; details: Homo sapiens, NCI-H460, Non-small cell lung cancer, read-out: Cell growth inhibition %
[21] = tested on: OVCAR-5; details: Homo sapiens, OVCAR-5, Ovarian cancer, read-out: Cell growth inhibition %
[22] = tested on: NCI/ADR-RES; details: Homo sapiens, Ovarian cancer, read-out: Cell growth inhibition %
[23] = tested on: CAKI-1; details: Homo sapiens, CAKI-1, Renal cancer, read-out: Cell growth inhibition %
[24] = tested on: HCC-2998; details: Homo sapiens, HCC-2998, Colon cancer, read-out: Cell growth inhibition %
[25] = tested on: SK-OV-3; details: Homo sapiens, SK-OV-3, Ovarian cancer, read-out: Cell growth inhibition %
[26] = tested on: HCT-116; details: Homo sapiens, HCT-116, Colon cancer, read-out: Cell growth inhibition %
[27] = tested on: UACC-257; details: Homo sapiens, UACC-257, Melanoma, read-out: Cell growth inhibition %
[28] = tested on: SK-MEL-28; details: Homo sapiens, SK-MEL-28, Melanoma, read-out: Cell growth inhibition %
[29] = tested on: NCI-H23; details: Homo sapiens, NCI-H23, Non-small cell lung cancer, read-out: Cell growth inhibition %
[30] = tested on: SF-539; details: Homo sapiens, SF-539, CNS cancer, read-out: Cell growth inhibition %
[31] = tested on: IGROV1; details: Homo sapiens, IGROV-1, IGROV1, Ovarian cancer, read-out: Cell growth inhibition %
[32] = tested on: KM12; details: Homo sapiens, KM12, Colon cancer, read-out: Cell growth inhibition %
[33] = tested on: PC-3; details: Homo sapiens, PC-3, Prostate cancer, read-out: Cell growth inhibition %
[34] = tested on: SN12C; details: Homo sapiens, Renal cancer, read-out: Cell growth inhibition %
[35] = tested on: UACC-62; details: Homo sapiens, UACC-62, Melanoma, read-out: Cell growth inhibition %
[36] = tested on: K-562; details: Homo sapiens, K562, K-562, Leukemia, read-out: Cell growth inhibition %
[37] = tested on: CCRF-CEM; details: Homo sapiens, Leukemia, read-out: Cell growth inhibition %

Compound | inhibition at 10 µM [1] [%] | inhibition at 10 µM [2] [%] | inhibition at 10 µM [3] [%] | inhibition at 10 µM [4] [%] | inhibition at 10 µM [5] [%] | inhibition at 10 µM [6] [%] | inhibition at 10 µM [7] [%] | inhibition at 10 µM [8] [%] | inhibition at 10 µM [9] [%] | inhibition at 10 µM [10] [%] | inhibition at 10 µM [11] [%] | inhibition at 10 µM [12] [%] | inhibition at 10 µM [13] [%] | inhibition at 10 µM [14] [%] | inhibition at 10 µM [15] [%] | inhibition at 10 µM [16] [%] | inhibition at 10 µM [17] [%] | inhibition at 10 µM [18] [%] | inhibition at 10 µM [19] [%] | inhibition at 10 µM [20] [%] | also measured
C=CCn1c(SC/C(=N\O)c2ccc(C)cc2)nnc1-c1c[nH]c2ccccc12 [Compound 7c, (Z)-2-((4-allyl-5-(1H-indol-3-yl)-4H-1,2,4-triazol-3-yl)thio)-1-(p-tolyl)ethanone Oxime] | 15.1 | 6.55 | 8.76 | -6.48 | -7.22 | 14.6 | -2.94 | 17.7 | 20.4 | 16.5 | 11.4 | 11.3 | 23.1 | 4.01 | -6.11 | 10 | 9.17 | 4.9 | -2.38 | 9.2 | inhibition at 10 µM [21]: 1.32%; inhibition at 10 µM [22]: 1.27%; inhibition at 10 µM [23]: 20.2%; inhibition at 10 µM [24]: 1.5%; inhibition at 10 µM [25]: -0.26%; inhibition at 10 µM [26]: 22.3%; inhibition at 10 µM [27]: -6.62%; inhibition at 10 µM [28]: -5.62%; inhibition at 10 µM [29]: 9.29%; inhibition at 10 µM [30]: -1.42%; inhibition at 10 µM [31]: 23.2%; inhibition at 10 µM [32]: 0.27%; inhibition at 10 µM [33]: 7.62%; inhibition at 10 µM [34]: 11.7%; inhibition at 10 µM [35]: 30.9%; inhibition at 10 µM [36]: 13.3%; inhibition at 10 µM [37]: 2.91%
C=CCn1c(SC/C(=N\O)c2ccc(Br)cc2)nnc1-c1c[nH]c2ccccc12 [Compound 7d, (Z)-2-((4-allyl-5-(1H-indol-3-yl)-4H-1,2,4-triazol-3-yl)thio)-1-(4-bromophenyl) Ethanone Oxime] | 32.5 | 22.1 | 37.9 | 8.25 | 20.4 | 18.5 | 5.15 | 25.8 | 43.7 | 28.5 | 17.9 | 26.9 | 33.6 | 23.6 | -3.34 | 35.7 | 4.84 | 9.17 | 6.21 | 19.7 | inhibition at 10 µM [21]: 6.82%; inhibition at 10 µM [22]: 6.71%; inhibition at 10 µM [23]: 25.8%; inhibition at 10 µM [24]: -3.65%; inhibition at 10 µM [25]: 3.28%; inhibition at 10 µM [26]: 47%; inhibition at 10 µM [27]: -1.32%; inhibition at 10 µM [28]: 7.82%; inhibition at 10 µM [29]: 17.9%; inhibition at 10 µM [30]: 14%; inhibition at 10 µM [31]: 30.8%; inhibition at 10 µM [32]: 8.58%; inhibition at 10 µM [33]: 31.6%; inhibition at 10 µM [34]: 16.3%; inhibition at 10 µM [35]: 36.3%; inhibition at 10 µM [36]: 40.8%; inhibition at 10 µM [37]: 26.7%
C=CCn1c(SC/C(=N\O)c2ccc(Cl)cc2)nnc1-c1c[nH]c2ccccc12 [Compound 7e, (Z)-2-((4-allyl-5-(1H-indol-3-yl)-4H-1,2,4-triazol-3-yl)thio)-1-(4-chlorophenyl) Ethanone Oxime] | 25 | 12.7 | 29.7 | 0.1 | 14.4 | 19.5 | 1.78 | 27.1 | 40 | 12.1 | 10.2 | 21.7 | 30.4 | 23.1 | -7.49 | 35 | 15.6 | 6.38 | 5.88 | 24.7 | inhibition at 10 µM [21]: -2.62%; inhibition at 10 µM [22]: 3.86%; inhibition at 10 µM [23]: 25.4%; inhibition at 10 µM [24]: 8.7%; inhibition at 10 µM [25]: 3.52%; inhibition at 10 µM [26]: 36.1%; inhibition at 10 µM [27]: 6.8%; inhibition at 10 µM [28]: 0.08%; inhibition at 10 µM [29]: 17.4%; inhibition at 10 µM [30]: 5.14%; inhibition at 10 µM [31]: 29.7%; inhibition at 10 µM [32]: 4.48%; inhibition at 10 µM [33]: 24.4%; inhibition at 10 µM [34]: 14.9%; inhibition at 10 µM [35]: 35.8%; inhibition at 10 µM [36]: 39.3%; inhibition at 10 µM [37]: 17.2%

Reference: paper PMC11859928, “Design, Synthesis, and Antiproliferative Activity of Novel Indole/1,2,4-Triazole Hybrids as Tubulin Polymerization Inhibitors” (Pharmaceuticals, 2025)
